Values joined by “and” are separate entries in the source; they are usually repeats but may differ in a detail not shown here. Equal values may be shown once. Toxic doses and inconclusive results are not listed. Rule for the calls: active = survival T/C of 150% or more; inactive = T/C below 125% in these data.
Tested on: P388 leukemia ip, CD2F1 mice, survival T/C
Experiment: NCI In Vivo Anticancer Drug Screen. Data for tumor model P388 Leukemia (intraperitoneal) in CD2F1 (CDF1) mice
Conditions: endpoint: median survival time, higher = longer survival
Procedure, shortened: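 Mice carrying the transplanted tumor received test compound or vehicle. Survival was recorded in each group, and the value is the treated-group measurement divided by that of the vehicle-treated control group.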

[1] = dose: 60.0 mg/kg/injection, schedule: Q01DX005 (ip), vehicle: saline with Tween-80
[2] = dose: 120.0 mg/kg/injection, schedule: Q01DX005 (ip), vehicle: saline with Tween-80
[3] = dose: 240.0 mg/kg/injection, schedule: Q01DX005 (ip), vehicle: saline with Tween-80
[4] = dose: 50.0 mg/kg/injection, schedule: Q01DX009 (ip), vehicle: saline with Tween-80
[5] = dose: 100.0 mg/kg/injection, schedule: Q01DX009 (ip), vehicle: saline with Tween-80
[6] = dose: 200.0 mg/kg/injection, schedule: Q01DX009 (ip), vehicle: saline with Tween-80
[7] = dose: 50.0 mg/kg/injection, schedule: Q01DX005 (ip), vehicle: Klucel (hydroxypropylcellulose) (HPC)
[8] = dose: 100.0 mg/kg/injection, schedule: Q01DX005 (ip), vehicle: Klucel (hydroxypropylcellulose) (HPC)
[9] = dose: 200.0 mg/kg/injection, schedule: Q01DX005 (ip), vehicle: Klucel (hydroxypropylcellulose) (HPC)
[10] = dose: 50.0 mg/kg/injection, schedule: Q01DX009 (ip), vehicle: Klucel (hydroxypropylcellulose) (HPC)
[11] = dose: 100.0 mg/kg/injection, schedule: Q01DX009 (ip), vehicle: Klucel (hydroxypropylcellulose) (HPC)
[12] = dose: 200.0 mg/kg/injection, schedule: Q01DX009 (ip), vehicle: Klucel (hydroxypropylcellulose) (HPC)
[13] = dose: 50.0 mg/kg/injection, schedule: Q01DX001 (ip), vehicle: Klucel (hydroxypropylcellulose) (HPC)
[14] = dose: 100.0 mg/kg/injection, schedule: Q01DX001 (ip), vehicle: Klucel (hydroxypropylcellulose) (HPC)
[15] = dose: 50.0 mg/kg/injection, schedule: Q01DX005 (ip), vehicle: saline with Tween-80
[16] = dose: 100.0 mg/kg/injection, schedule: Q01DX005 (ip), vehicle: saline with Tween-80

Measured: T/C

NC1=NN(Cc2csc(-c3ccccc3)n2)C(=O)C1
inactive: [1] 103 % of control | [2] 95 % of control | [3] 103 % of control

COC(CN1C(=O)CSC1=S)OC
inactive: [4] 114 % of control | [5] 117 % of control | [6] 117 % of control

OCc1sccc1-n1cccc1
inactive: [1] 104 % of control | [2] 104 % of control | [3] 104 % of control

Cc1cccc(N=Nc2c(-c3ccccc3)nn(C(=S)S)c2C)c1C
inactive: dose: 12.5 mg/kg/injection, schedule: Q01DX001 (ip), vehicle: saline with Tween-80 100 % of control | dose: 25.0 mg/kg/injection, schedule: Q01DX001 (ip), vehicle: saline with Tween-80 96 % of control | dose: 50.0 mg/kg/injection, schedule: Q01DX001 (ip), vehicle: saline with Tween-80 96 % of control | dose: 200.0 mg/kg/injection, schedule: Q01DX001 (ip), vehicle: saline with Tween-80 91 % of control | dose: 400.0 mg/kg/injection, schedule: Q01DX001 (ip), vehicle: saline with Tween-80 99 % of control

Cc1ccc2c(=O)c3ccccc3c3c2c1c1c(C)ccc2c(=O)c4ccccc4c3c21
inactive: [7] 108 % of control | [8] 102 % of control | [9] 107 % of control

O=C(O)c1ccccc1NC(=S)Nc1ccccc1C(F)(F)F
inactive: [10] 100 % of control | [11] 96 % of control | [12] 105 % of control

S=C(N/N=C/c1ccc(Cl)s1)NC12CC3CC(CC(C3)C1)C2
inactive: dose: 30.0 mg/kg/injection, schedule: Q01DX005 (ip), vehicle: Klucel (hydroxypropylcellulose) (HPC) 87 % of control | dose: 60.0 mg/kg/injection, schedule: Q01DX005 (ip), vehicle: Klucel (hydroxypropylcellulose) (HPC) 93 % of control | dose: 120.0 mg/kg/injection, schedule: Q01DX005 (ip), vehicle: Klucel (hydroxypropylcellulose) (HPC) 102 % of control | dose: 240.0 mg/kg/injection, schedule: Q01DX005 (ip), vehicle: Klucel (hydroxypropylcellulose) (HPC) 100 % of control

CC(C)(C)C#CP(=O)(C#CC(C)(C)C)C#CC(C)(C)C
inactive: [13] 97 % of control | [14] 99 % of control | dose: 200.0 mg/kg/injection, schedule: Q01DX001 (ip), vehicle: Klucel (hydroxypropylcellulose) (HPC) 95 % of control

O=C1CN(C2CCCCC2)CC(=O)N2CCCCN12
inactive: dose: 50.0 mg/kg/injection, schedule: Q01DX005 (ip), vehicle: saline 108 % of control | dose: 100.0 mg/kg/injection, schedule: Q01DX005 (ip), vehicle: saline 105 % of control | dose: 200.0 mg/kg/injection, schedule: Q01DX005 (ip), vehicle: saline 103 % of control

CCCCN(CCCC)/C(N)=N/O
inactive: dose: 20.0 mg/kg/injection, schedule: Q01DX009 (ip), vehicle: saline with Tween-80 92 % of control | dose: 40.0 mg/kg/injection, schedule: Q01DX009 (ip), vehicle: saline with Tween-80 100 % of control | dose: 80.0 mg/kg/injection, schedule: Q01DX009 (ip), vehicle: saline with Tween-80 107 % of control

CC1C(c2ccccc2)NC(c2ccccc2)C(C)C1O (configuration not stated)
inactive: [7] 101 % of control | [8] 98 % of control | [9] 105 % of control

COc1cc(N=Nc2ccccc2)cc(/C=N\NC(=S)Nc2ccccc2)c1O
inactive: [15] 91 % of control | [16] 94 % of control

NC(N)=NCCCSC(=O)C1CCCCC1
inactive: [15] 105 % of control | [16] 107 % of control

O=c1c2ccccc2n(-c2ccccc2)c2cc(Cl)ccc12
inactive: [7] 100 % of control | [8] 102 % of control | [9] 100 % of control

C/C([O-])=N/c1n[n+](-c2ccc(Cl)cc2)no1
inactive: dose: 3.12 mg/kg/injection, schedule: Q01DX009 (ip), vehicle: other 98 % of control | dose: 6.25 mg/kg/injection, schedule: Q01DX009 (ip), vehicle: other 100 % of control | dose: 12.5 mg/kg/injection, schedule: Q01DX009 (ip), vehicle: other 103 % of control | dose: 25.0 mg/kg/injection, schedule: Q01DX009 (ip), vehicle: other 101 % of control | dose: 50.0 mg/kg/injection, schedule: Q01DX009 (ip), vehicle: other 112 % of control | dose: 100.0 mg/kg/injection, schedule: Q01DX009 (ip), vehicle: other 112 % of control

O=C(CNC(=O)n1ccnc1)N/N=C/c1ccco1
inactive: [15] 95 % of control | [16] 92 % of control | dose: 200.0 mg/kg/injection, schedule: Q01DX005 (ip), vehicle: saline with Tween-80 89 % of control

Cc1ccc(S(=O)(=O)N/N=C/C(C)c2cccnc2)cc1 (configuration not stated)
inactive: [4] 105 % of control | [5] 99 % of control | [6] 107 % of control

c1ccc(-c2[nH]nc3nc4c(nc23)CCCC4)cc1
inactive: [7] 89 % of control | [8] 99 % of control | [9] 92 % of control

O=[N+]([O-])c1cnc(/C=[N+](\[O-])CCO)n1CCO
inactive: dose: 50.0 mg/kg/injection, schedule: Q01DX009 (ip), vehicle: saline 99 % of control | dose: 100.0 mg/kg/injection, schedule: Q01DX009 (ip), vehicle: saline 90 % of control | dose: 200.0 mg/kg/injection, schedule: Q01DX009 (ip), vehicle: saline 106 % of control

Cc1cc(C)nc(NS(=O)(=O)c2ccc(Nc3c4ccccc4nc4ncccc34)cc2)n1
inactive: [1] 97 % of control | [2] 90 % of control | [3] 90 % of control

COCC1=C(C)CC(CC(=O)OC)C1=O (configuration not stated)
inactive: dose: 60.0 mg/kg/injection, schedule: Q01DX005 (ip), vehicle: saline 98 % of control | dose: 120.0 mg/kg/injection, schedule: Q01DX005 (ip), vehicle: saline 98 % of control | dose: 240.0 mg/kg/injection, schedule: Q01DX005 (ip), vehicle: saline 101 % of control

C(=N/Nc1ccccc1)/C(=N\Nc1ccccc1)C1CCN(Cc2ccccc2)CC1
inactive: dose: 25.0 mg/kg/injection, schedule: Q01DX001 (ip), vehicle: Klucel (hydroxypropylcellulose) (HPC) 103 % of control | [13] 107 % of control | [14] 100 % of control

CC1(C(=O)O)CCC2(C)CCC3(C)C(=CC(=O)C4C5(C)CCC(O)C(C)(C)C5CCC43C)C2C1 (configuration not stated)
inactive: dose: 25.0 mg/kg/injection, schedule: Q01DX009 (ip), vehicle: Klucel (hydroxypropylcellulose) (HPC) 95 % of control | [10] 100 % of control | dose: 50.0 mg/kg/injection, schedule: Q04DX003 (ip), vehicle: Klucel (hydroxypropylcellulose) (HPC) 105 % of control | [11] 94 % of control | dose: 100.0 mg/kg/injection, schedule: Q04DX003 (ip), vehicle: Klucel (hydroxypropylcellulose) (HPC) 100 % of control | [12] 94 % of control | dose: 200.0 mg/kg/injection, schedule: Q04DX003 (ip), vehicle: Klucel (hydroxypropylcellulose) (HPC) 106 % of control

ClCCN(CCCl)CC(Cl)COc1cccc2ccccc12 (configuration not stated)
inactive: dose: 0.62 mg/kg/injection, schedule: Q01DX009 (ip), vehicle: saline 106 % of control and 108 % of control | dose: 1.25 mg/kg/injection, schedule: Q01DX009 (ip), vehicle: saline 100 % of control and 108 % of control | dose: 2.5 mg/kg/injection, schedule: Q01DX009 (ip), vehicle: saline 86 % of control and 97 % of control

CC(CN)OC12CC3CC(CC(C3)C1)C2 (configuration not stated)
inactive: [1] 100 % of control | [2] 99 % of control

— PubChem BioAssay AID330 (DTP/NCI, 2004)
